Our source for the IC50 values is ChEMBL document CHEMBL1129143, “Synthesis and acetylcholinesterase inhibitory activity of fluorinated analogues of huperzine A” (Bioorg Med Chem Lett, 1996).

This experiment addresses Acetylcholinesterase (Homo sapiens, UniProt P22303). In words: In vitro inhibitory activity against Acetylcholinesterase (AChE).

Each structure is given as a SMILES string.

Sequence of Acetylcholinesterase (P22303 whole entry): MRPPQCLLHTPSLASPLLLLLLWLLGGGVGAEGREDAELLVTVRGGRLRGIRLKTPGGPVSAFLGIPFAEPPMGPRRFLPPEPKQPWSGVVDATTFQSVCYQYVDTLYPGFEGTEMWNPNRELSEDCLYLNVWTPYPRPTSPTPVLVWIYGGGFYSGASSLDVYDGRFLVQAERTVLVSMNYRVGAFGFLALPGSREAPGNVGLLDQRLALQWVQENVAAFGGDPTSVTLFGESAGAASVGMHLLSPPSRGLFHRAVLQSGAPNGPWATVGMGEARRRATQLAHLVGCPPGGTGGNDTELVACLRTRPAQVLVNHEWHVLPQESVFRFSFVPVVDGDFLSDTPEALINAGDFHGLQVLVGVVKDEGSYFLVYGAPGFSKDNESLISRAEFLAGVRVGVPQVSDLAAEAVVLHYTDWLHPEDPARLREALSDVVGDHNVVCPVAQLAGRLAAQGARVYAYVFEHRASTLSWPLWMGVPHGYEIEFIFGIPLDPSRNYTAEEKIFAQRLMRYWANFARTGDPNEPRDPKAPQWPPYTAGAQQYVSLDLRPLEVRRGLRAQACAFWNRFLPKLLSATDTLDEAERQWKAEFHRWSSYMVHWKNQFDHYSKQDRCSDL

`CC1=CC2Cc3nc(O)ccc3C(N)(C1)/C2=C/C(F)(F)F` (stereo not drawn) displayed an IC50 of 2000 nM.

The compound `NC12CC(C(F)(F)F)=CC(Cc3nc(O)ccc31)/C2=C\C(F)(F)F` (stereo not drawn) had a concentration for half-maximal inhibition (IC50) of 3000 nM.

Compound `C/C=C1\C2C=C(C(F)(F)F)CC1(N)c1ccc(=O)[nH]c1C2` (stereo not drawn) registered an IC50 of 400 nM.
